The record followed here is patent EP0326418A1, “GRF analogs” (THE UPJOHN COMPANY, priority 1988, dated 1989).

One may read the amount remaining as the share of the starting amount still present when the sample was taken. Read a high amount remaining as less turnover.

Data set [1] deals with bovine anterior pituitary cell culture. In kind it is cell-based.
In a further data set the test system is meal-fed Holstein steers. Briefly: serum growth hormone (GH) response after intravenous injection in steers (Procedure B). Format: in vivo. Particulars: in comparison to the standard bGRF(1-44)NH₂ (Area 100%), procedure B, second study. An excerpt:
The synthetic peptides prepared in Examples 1, 2 and 3 (Compounds 1, 2 and 3 respectively), bGRF(1-44)NH2 and […] bGRF(1-32)NH2 were also given to meal-fed Holstein steers by intravenous injection (Procedure B) and the serum growth hormone (GH) response evaluated. […] In comparison to bGRF(1-44)NH2 (100%), the area under the GH response curve was 122% for […] bGRF(1-32)NH2, 100% for Compound #1, 106% for Compound #2, and 111% for Compound #3. Holstein steers (265 +/- 5kg) were housed in individual stalls 18-20°C) and exposed to 16h light:8h darkness (lights on at 0400h). Steers are meal-fed once daily at 1000h and trained to consume their total daily feed intake in 2 h. The diet consisted of rolled corn plus a mineral/vitamin premix and alfalfa hay cubes fed at 160% maintenance energy requirements on a bodyweight basis. Steers gained approximately 0.75 kg/h/d. In a 5 x […] Latin Square design 10 steers were assigned randomly to receive the following treatments. (a) bGRF(1-44)NH2, (b) […] bGRF(1-32)NH2, (c) Compound #3, (d) Compound #1, and (e) Compound #2. The GRFs were dissolves in saline (10μg/ml) and administered at 3nM/100 kg bodyweight as single iv injection at 0800 h, 2 h between feeding. A cannula was inserted into a jugular vein at least one day before treatment. Blood (6 ml) was collected at 20-min interval from 40 min before until 120 min after injection with additional samples collected at 5, 10 and 15 min after injection. Serum obtained from the samples was assayed from GH concentration. The number of steers responding to injection fo the various GRFs tested (P=0.42) ranged from 9 of 10 to 10 of 10 depending on the treatment. Using procedure B, compounds were tested for growth hormone release in steers. In comparison to the standard bGRF(1-44)NH2 (Area 100%), the test compounds gave the following relative growth hormone areas: Compound 4, 233%; compound 5, 140%; compound 6, 160%; compound 7, 126%; compound 8, 307%; compound 9, 260%; and compound 11, 173%.

Data set [2] in a line: proteolytic stability in bovine plasma (HPLC, modified Frohman method). Particulars: bovine plasma.

Where a SMILES comes first, the peptide text is derived from it. [ ]: non-standard residue; d: D form. Cya = N[C@@H](CS(=O)(=O)O)C(=O)O

On to `CC[C@H](C)[C@H](NC(=O)[C@H](C)NC(=O)[C@H](CS(=O)(=O)O)NC(=O)[C@@H](C)NC(=O)[C@@H](N)Cc1ccc(O)cc1)C(=O)N[C@@H](Cc1ccccc1)C(=O)N[C@H](C(=O)N[C@@H](CC(N)=O)C(=O)N[C@@H](CO)C(=O)N[C@@H](Cc1ccc(O)cc1)C(=O)N[C@@H](CCCNC(=N)N)C(=O)N[C@@H](CCCCN)C(=O)N[C@H](C(=O)N[C@@H](CC(C)C)C(=O)NCC(=O)N[C@@H](CCC(N)=O)C(=O)N[C@@H](CC(C)C)C(=O)N[C@@H](CO)C(=O)N[C@@H](C)C(=O)N[C@@H](CCCNC(=N)N)C(=O)N[C@@H](CCCCN)C(=O)N[C@@H](CC(C)C)C(=O)N[C@@H](CC(C)C)C(=O)N[C@@H](CCC(N)=O)C(=O)N[C@@H](CC(=O)O)C(=O)N[C@H](C(=O)N[C@@H](CC(C)C)C(=O)N[C@@H](CC(N)=O)C(=O)N[C@@H](CCCNC(=N)N)C(=O)N[C@@H](CCC(N)=O)C(=O)N[C@@H](CCC(N)=O)C(=O)NCC(N)=O)[C@@H](C)CC)C(C)C)[C@@H](C)O` [Compound 4, D-Ala², Cya³, Leu²⁷-bGRF(1-32)NH₂] (H-Y[dA][Cya]AIFTNSYRKVLGQLSARKLLQDILNRQQG-NH2), for which the “the potency of bGRF(1-44)NH₂” value in data set [1] was determined as 0.29. In the data set on meal-fed Holstein steers, the “relative growth hormone areas” value came to 233%. Besides, the share remaining at 1 h in data set [2] stood at 76%.
